# Target: T1, Human Polθ polymerase domain (aa1820-2590) (Homo sapiens, UniProt O75417)
# T1 construct: Human Polθ polymerase domain (aa1820-2590) was expressed in E. coli; made in house; host or cells: E. coli
# T1 sequence (O75417 1820-2590): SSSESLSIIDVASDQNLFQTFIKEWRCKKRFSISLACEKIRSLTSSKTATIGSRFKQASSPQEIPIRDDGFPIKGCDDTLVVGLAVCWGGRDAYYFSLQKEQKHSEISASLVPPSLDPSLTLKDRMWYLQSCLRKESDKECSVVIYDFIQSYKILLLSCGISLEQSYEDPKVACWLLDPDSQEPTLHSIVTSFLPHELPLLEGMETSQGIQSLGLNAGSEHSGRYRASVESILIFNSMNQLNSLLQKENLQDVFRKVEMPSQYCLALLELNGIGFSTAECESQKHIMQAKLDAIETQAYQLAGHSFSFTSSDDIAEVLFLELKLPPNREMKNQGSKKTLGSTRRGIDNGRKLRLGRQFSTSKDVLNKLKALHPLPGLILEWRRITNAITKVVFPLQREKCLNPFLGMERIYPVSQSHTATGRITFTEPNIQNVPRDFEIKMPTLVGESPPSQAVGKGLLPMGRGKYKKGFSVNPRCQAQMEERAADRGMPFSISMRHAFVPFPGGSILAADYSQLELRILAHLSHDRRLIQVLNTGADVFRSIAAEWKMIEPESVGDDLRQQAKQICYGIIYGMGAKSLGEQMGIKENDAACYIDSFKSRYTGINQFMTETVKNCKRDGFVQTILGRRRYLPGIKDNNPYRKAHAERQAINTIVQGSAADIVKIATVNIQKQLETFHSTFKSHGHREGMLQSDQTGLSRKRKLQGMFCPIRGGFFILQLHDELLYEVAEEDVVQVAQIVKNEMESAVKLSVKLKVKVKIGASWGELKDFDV
# Assay: Polθ Polymerase Domain Kinact/KI Assay (PicoGreen)
# Format: biochemical
# Details: 0.8 nM Polθ, 100 nM DNA substrate, kobs vs [I] fit for 2-step covalent inhibitor
# Method in brief: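 Time-dependent inhibition was followed with 0.8 nM polymerase domain, 100 nM DNA substrate and […], reactions quenched over 60 min and quantified by PicoGreen. Kinact and KI came from a secondary plot of kobs against inhibitor concentration.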
row,Kinact/Kl [M⁻¹ s⁻¹],SMILES
1,3.32e+06,"C=CC(=O)N1CCN(CCCN2C[C@H]3CC(=O)N(c4cc(C(F)(F)F)cc(C)n4)[C@@H]3C(=O)N(C)c3cccc(C)c32)CC1C(F)(F)F (mixture of isomers) [Example 265a, (3aR,11aS)-5-(3-((S/R)-4-acryloyl-3-(trifluoromethyl)piperazin-1-yl)propyl)-6,10-dimethyl-1-(6-methyl-4-(trifluoromethyl)pyridin-2-yl)-1,3a,4,5,10,11a-hexahydro-2H-benzo[b]pyrrolo[2,3-f][1,4]diazocine-2,11(3H)-dione]"
2,1.06e+06,"C=CC(=O)N1Cc2nc(CN3C[C@H]4CC(=O)N(c5cc(C(F)(F)F)cc(C)n5)[C@@H]4C(=O)Nc4cccc(Cl)c43)cn2CC1C (single isomer, unassigned) [Example 144a]"
3,580000,"C=CC(=O)N1Cc2nc(CN3C[C@H]4CC(=O)N(c5cc(C(F)(F)F)cc(C)n5)[C@@H]4C(=O)N(C)c4cccc(Cl)c43)cn2CC1C(F)F (mixture of isomers) [Example 243b, (3aR,11aS)-5-(((R/S)-7-acryloyl-6-(difluoromethyl)-5,6,7,8-tetrahydroimidazo[1,2-a]pyrazin-2-yl)methyl)-6-chloro-10-methyl-1-(6-methyl-4-(trifluoromethyl)pyridin-2-yl)-1,3a,4,5,10,11a-hexahydro-2H-benzo[b]pyrrolo[2,3-f][1,4]diazocine-2,11(3H)-dione]"
4,410000,"Cc1cc(C(F)(F)F)cc(N2C(=O)C[C@@H]3CN(Cc4ccc([C@@H]5CCCN5C(=O)/C=C/CN(C)C)cc4)c4c(F)cccc4N(C)C(=O)[C@H]32)n1 (racemic) [Example 170b, (3aR,11aS)-5-(4-((S/R)-1-((E)-4-(dimethylamino)-but-2-enoyl)pyr-rolidin-2-yl)benz-yl)-6-fluoro-10-methyl-1-(6-methyl-4-(tri-fluoromethyl)-pyridin-2-yl)-1,3a,4,5,10,11a-hexahydro-2H-benzo[b]pyrrolo [2,3-f][1,4]diazo-cine-2,11(3H)-dione]"

# The next lines start with the molecule.
row,SMILES,Kinact/Kl [M⁻¹ s⁻¹]
1,"C=C(CN(C)C)C(=O)N1CC(c2cccc(CN3C[C@H]4CC(=O)N(c5cc(C(F)(F)F)cc(C)n5)[C@@H]4C(=O)N(C)c4cccc(F)c43)c2)C1 [Example 152, (3aR, 11aS)-5-(3-(1-(2-((dimethylamino)methyl)acryloyl)azetidin-3-yl)benzyl)-6-fluoro-10-methyl-1-(6-methyl-4-(trifluoromethyl)pyridin-2-yl)-1,3a,4,5,10,11a-hexahydro-2H-benzo[b]pyrrolo[2,3-f][1,4]diazocine-2,11(3H)-dione]",5.05e+06
2,"C=CC(=O)N1CC(N2CCN(C(=O)CN3C[C@H]4CC(=O)N(c5cc(C(F)(F)F)cc(C)n5)[C@@H]4C(=O)N(C)c4cccc(Cl)c43)CC2)C1 [Example 75, (3aR,11aS)-5-(2-(4-(1-acryloylazetidin-3-yl)piperazin-1-yl)-2-oxoethyl)-6-chloro-10-methyl-1-(6-methyl-4-(trifluoromethyl)pyridin-2-yl)-1,3a,4,5,10,11a-hexahydro-2H-benzo[b]pyrrolo[2,3-f][1,4]diazocine-2,11(3H)-dione]",1.32e+06
3,"C=CC(=O)N1CC(N(C)CCCN2C[C@H]3CC(=O)N(c4cc(C(F)(F)F)cc(C)n4)[C@@H]3C(=O)N(C)c3cccc(C)c32)C1 [Example 205, (3aR,11aS)-5-(3-((1-acryloylazetidin-3-yl)(methyl)amino)propyl)-6,10-dimethyl-1-(6-methyl-4-(trifluoromethyl)pyridin-2-yl)-1,3a,4,5,10,11a-hexahydro-2H-benzo[b]pyrrolo [2,3-f][1,4]diazocine-2,11(3H)-dione]",1.67e+06
4,"Cc1cc(C(F)(F)F)cc(N2C(=O)C[C@@H]3CN(Cc4ccc5c(c4)CN(C(=O)/C=C/CN(C)C)C5)c4c(C)cccc4N(C)C(=O)[C@H]32)n1 [Example 176, (3aR,11aS)-5-((2-((E)-4-(dimethyl-amino)but-2-enoyl)isoindolin-5-yl)methyl)-6,10-dimethyl-1-(6-methyl-4-(tri-fluoromethyl)pyr-idin-2-yl)-1,3a,4,5,10,11a-hexa-hydro-2H-benzo [b]pyrrolo[2,3-f] [1,4]diazocine-2,11(3H)-dione]",1.37e+06
5,"C=CC(=O)N1CCN2CCN(CCN3C[C@H]4CC(=O)N(c5cc(C(F)(F)F)cc(C)n5)[C@@H]4C(=O)N(C)c4cccc(F)c43)C(=O)[C@@H]2C1 [Example 45, (3aR,11aS)-5-(2-((S)-8-acryloyl-1-oxooctahydro-2H-pyrazino[1,2-a]pyrazin-2-yl)ethyl)-6-fluoro-10-methyl-1-(6-methyl-4-(trifluoromethyl)pyridin-2-yl)-1,3a,4,5,10,11a-hexahydro-2H-benzo[b]pyrrolo[2,3-f][1,4]diazocine-2,11(3H)-dione]",310000
6,"Cc1cc(C(F)(F)F)cc(N2C(=O)C[C@@H]3CN(CCCCNC(=O)/C=C/CN(C)C)c4c(Cl)cccc4N(C)C(=O)[C@H]32)n1 [Example 252, (E)-N-(4-((3aR,11aS)-6-chloro-10-methyl-1-(6-methyl-4-(trifluoromethyl)pyridin-2-yl)-2,11-dioxo-1,2,3,3a,4,10,11,11a-octahydro-5H-benzo[b]pyrrolo[2,3-f][1,4]diazocin-5-yl)butyl)-4-(dimethylamino)but-2-enamide]",1.19e+06
7,"C=C(COC(C)=O)C(=O)N1CC(OCCCN2C[C@H]3CC(=O)N(c4cc(C(F)(F)F)cc(C)n4)[C@@H]3C(=O)N(C)c3cccc(Cl)c32)C1 [Example 78, 2-(3-(3-((3aR,11aS)-6-chloro-10-methyl-1-(6-methyl-4-(trifluoromethyl)pyridin-2-yl)-2,11-dioxo-1,2,3,3a,4,10,11,11a-octahydro-5H-benzo[b]pyrrolo[2,3-f][1,4]diazocin-5-yl)propoxy)azetidine-1-carbonyl)allyl Acetate]",2.06e+06
8,"C=C(CN(C)C)C(=O)N1CC(CCCCN2C[C@H]3CC(=O)N(c4cc(C(F)(F)F)cc(C)n4)[C@@H]3C(=O)Nc3cccc(C)c32)C1 [Example 192, (3aR,11aS)-5-(4-(1-(2-((dimethyl-amino)methyl)-acryloyl)azetidin-3-yl)butyl)-6-meth-yl-1-(6-methyl-4-(trifluoromethyl)-pyridin-2-yl)-1,3a,4,5,10,11a-hexahydro-2H-benzo[b]pyrrolo [2,3-f][1,4]diazo-cine-2,11(3H)-dione]",2.18e+06
9,"C=CC(=O)N1CC(N2CCN(CCN3C[C@H]4CC(=O)N(c5cc(C(F)(F)F)cc(C)n5)[C@@H]4C(=O)N(C)c4cc(F)cc(C)c43)CC2)C1 [Example 18, (3aR,11aS)-5-(2-(4-(1-acryloylazetidin-3-yl)piperazin-1-yl)ethyl)-8-fluoro-6,10-dimethyl-1-(6-methyl-4-(trifluoromethyl)pyridin-2-yl)-1,3a,4,5,10,11a-hexahydro-2H-benzo[b]pyrrolo[2,3-f][1,4]diazocine-2,11(3H)-dione]",1.18e+06
10,"C=CC(=O)N1CCn2nc(CN3C[C@H]4CC(=O)N(c5cc(C(F)(F)F)cc(C)n5)[C@@H]4C(=O)N(C)c4cccc(F)c43)nc2C1 [Example 133, (3aR,11aS)-5-((7-acryloyl-5,6,7,8-tetrahydro-[1,2,4]triazolo[1,5-a]pyrazin-2-yl)methyl)-6-fluoro-10-methyl-1-(6-methyl-4-(trifluoromethyl)pyridin-2-yl)-1,3a,4,5,10,11a-hexahydro-2H-benzo[b]pyrrolo[2,3-f][1,4]diazocine-2,11(3H)-dione]",1.7e+06

# — patent US20250230165A1, “HETEROCYCLIC COMPOUNDS FOR USE IN THE TREATMENT OF CANCER” (ARTIOS PHARMA LIMITED, priority 2021, published 2025)
